Measured values: patent publication US6369109B1, “Betulinic acid and derivatives thereof useful for the treatment of neuroectodermal tumor” (Deutsches Krebsforschungszentrum Stiftung des Offentlichen …, priority 1998, dated 2002)

Test system: CD95-L and CD95 in SHEP cells transfected with Bcl-2, Bcl-XL or Neo
Test: Induction of CD95-L and CD95 (RT-PCR, Western blot, FACS)
Format: cell-based, human
Conditions: 0.5 μg/ml Doxo or 10 μg/ml betulinic acid, 24 h, Bcl-2 or Bcl-XL cells, FIG. 13
Method: Cells were stained with anti-APO-1 (CD95) IgGl monoclonal antibody (moab) (1 μg/ml; Trauth et al., 1989, Science 245:301-305) for 45 minutes at 4° C. followed by goat anti-mouse IgG-FITC (Immunotech, Hamburg, Germany) for 30 minutes at 4° C. FII23 IgGl antibody was used as an isotype matched non-binding antibody to control unspecific binding.
Total RNA was prepared using the Qiagen total RNA kit (Qiagen, Hilden, Germany). RNA was converted to cDNA by reverse transcription and amplified for 38 cycles by PCR in a thermocycler (Stratagene, Heidelberg, Germany) using the Gene Amplification RNA-PCR kit (Perkin Elmer, Branchburg, N.J.) following the manufacturer's instructions. A 500-base pair fragment of CD95-L was amplified using primer 5′[…]3′ (SEQ ID:No 1) and 5′[…]3′ (SEQ ID NO:2) and a 311-base pair fragment of CD95 was amplified using primer 5′[…] […]
CD95-L mRNA expression was determined by RT-PCR. […] CD95-L protein was detected as a Mr 37,000 band by mouse anti-CD9S-L moab and enhanced chemiluminescence.
SHEP cells transfected with Bcl-2 or Bcl-XL or a neomycin resistance vector only (Neo) were treated (Lanes+) with 0.5 μg/ml Doxo or 10 μg/ml Bet A for 24 h. CD95 mRNA expression was determined by RT-PCR. […] For FACS analysis of CD95 protein expression (C), cells were stained with mouse anti-APO-1 moab followed Dy FITC-conjugated antimouse IgG antibody and analyzed by flow cytometry. […]

**Q.** Which “induction of CD95-L and CD95” value does the source give for `COc1cccc2c1C(=O)c1c(O)c3c(c(O)c1C2=O)C[C@@](O)(C(=O)CO)C[C@@H]3O[C@H]1C[C@H](N)[C@H](O)[C@H](C)O1` [doxorubicin] here?
**A.** The value was “Both CD95-L and CD95 were induced at the mRNA and protein level”.
